From patent publication US20090325992A1, “COMPOUND HAVING CYCLIC GROUP BOUND THERETO THROUGH SPIRO BINDING AND USE THEREOF” (ONO PHARMACEUTICAL CO., LTD., priority 2006, published 2009)
Read-outs that look alike come from different tables or passages of the source.

What was measured:
[1] = test system: CHL/IU (cell line derived from a Chinese hamster lung); test: Phospholipidosis detecting system using fluorescent labeling phospholipid analog (NBD-PE); assay type: cell-based
Protocol: Investigation with Phospholipidosis Detecting System using Fluorescent Labeling Phospholipidosis Analog under Severity Condition (1) Phospholipid Accumulation Measurement 100 μL/well as required (1 dose 2 wells) of cell suspension of CHL/IU (cell line derived from a Chinese hamster lung) (7×10^4 cells/mL) prepared by MEM (minimum essential medium) culture medium was added to a 96-well plate (96-well clear-bottom plate), and cultured for about 24 hours. After culture, the supernatant of the 96-well plate was removed, and the 100 μL/well compounds of each concentration dissolved and suspended in an MEM including 25 μmol/L nitrobenzoxadiazole dipalmitoyl phosphatidylethanolamine (NBD-PE) (hereinafter abbreviated as a NPD-PE medium) were added and treated for about 48 hours. The treatment concentrations of each compound were set to be 5, 50, 100 and 200 μM. The positive control substance was set to be amiodarone hydrochloride, and the treatment concentrations were set to be 1.25, 2.5, 5, 10 and 20 μM. In addition, 5-well untreated controls (only MEM) and 5-well NBD-PE controls (made by means of adding a 1/100 amount of DMSO to the NBD-PE culture medium) were set per compound, and cultured in the same manner. After finishing the culture, the cultures were washed twice with phosphate buffered saline (hereinafter abbreviated as PBS) (−) 100 μL/well, and the MEM (100 μL) was added to all of the treatment wells including two empty wells for WST-1 background controls and cultured for about a half hour. The fluorescence intensities of each well were measured by using a microplate reader (manufactured by Molecular Devices Inc., SPECTRA max M2; the excitation wavelength 485 nm/fluorescence wavelength 535 nm). (2) Analysis Using the average values of each dose×2 wells, a phospholipid increase rate (%) to the NBD-PE control was calculated by using the following calculating formula: Rate of increase of phospholipid accumulation (%)=100×{(test compound fluorescence intensity−non-treated control fluorescence intensity)/(NBD-PE control fluorescence intensity−non-treated control fluorescence intensity)} [Equation 2] (3) Cytotoxicity Assay 96-well plate measured in the phospholipid accumulation measurement was measured by means of Plate Reader (manufactured by Molecular Devices Inc., SPECTRA max M2) with the main wavelength of 450 nm and the correct wavelength of 690 nm to calculate a Pre value. An amount of 5 μL/well of Premix WS T-1 was added to each of the 96-hole plates by which Pre measurement was conducted. After culture for 2 to 4 hours, the 96-well plate was measured as well as the Pre measurement to calculate an Aft value. Then, the background control value was subtracted from the each measured value. A value which was calculated by subtracting the Pre value from the Aft value was used, then the cell growth rate (%) was calculated by using the following calculating formula: Cell growth rate (%)=100×[(test substance OD)/(NBD-PE control OD)] [Equation 3] (4) Determination A test dose that indicated value of 25% or more of the maximum phospholipid accumulation increase rate of amiodarone which was the positive control was determined as positive. In addition, the dose whose cell growth rate was equal to or less than 50% in the cytotoxicity assay was not used for determination of existence or nonexistence of a phospholipidosis inductive effect.

[2] = rat, in vivo, iv, 1 mg/kg
Protocol: (§1) Measurement of Maximum Plasma Level (Cmax) and Stationary State Distribution Volume (Vss)
(§2) A compound to be evaluated is weighed, dissolved in WellSolve (trade name; manufactured by Celeste Corporation) which is heated to 60° C. and adjusted to 20 mg/mL; thereafter, the test compound is diluted by 10 times with distilled water for injection, and further diluted by 2 times with saline solution, by which intravenously administered solution is eventually made. A compound to be evaluated is dissolved in WellSolve which is heated to 60° C. and adjusted to 50 mg/mL; thereafter, the compound to be evaluated is diluted with distilled water for injection and adjusted to 1 mg/mL. Five compounds (one set) were mixed in the same amount and adjusted to final concentration of 0.2 mg/mL per one compound, by which orally administered solution is eventually made. […] The administration is conducted under fasting conditions; water is freely ingested. In the case of intravenous administration, a 0.35 mL of blood sample is taken from cervical vein by using Heparinized Syringe at 5 minutes, 15 minutes, 30 minutes, 1 hour, 2 hours, 4 hours, 6 hours, 8 hours, and 24 hours after administration. […] The obtained blood is stored in ice, and after centrifugation at 12,000 rpm for 3 minutes, blood plasma is fractionated. In the case of intravenous administration, the blood plasma sample preserved at a temperature of −80° C. is dissolved; inner standard solution (100 μL) and acetonitrile (2 mL) are added to the blood plasma sample (100 μL) and stirred, and the sample is centrifuged at 2,500 rpm for 10 minutes.
(§3) After the supernatant centrifuged is evaporated to dryness by means of a centrifugal concentrator, 67% dimethyl sulfoxide solution (150 μL) is added to the residue and dissolves them again and 20 μL of the solution is analyzed by means of LC/MS/MS.
(§4) Measurement device: Waters 2795 (manufactured by Waters Corporation) Analytical column: Unison UK-C18, 3.0 μm particle size, 2.0 mm×30 mm (manufactured by Imtakt Corporation) Analytical column temperature: Room temperature Flow rate: 200 μL/min Moving bed: 5 mM IPC-PFAA-7 solution/acetonitrile (9/1→1/9)
(§5) Measurement device: Quatro micro API (manufactured by Micromass Communications Inc.) Scan type: MPM
(§6) The monitor ion which was suitable for each sample was selected.
(§7) A portion of the compound to be intravenously administered was subjected to the following treatment. The blood plasma sample preserved at a temperature of −80° C. is dissolved; inner standard solution (50 μL) and acetonitrile (1 mL) are added to the blood plasma sample (50 μL) and stirred, and the sample is centrifuged at 3,000 rpm for 10 minutes. After the supernatant is evaporated to dryness by means of a centrifugal concentrator, the residue was redissolved in water/acetonitrile (1/1) and the solution is analyzed by means of LC/MS/MS under the following conditions.
(§8) Measurement device: 1200 series system (manufactured by Agilent Technologies) Analytical column: Asahipak OOD-50 2D, 2×150 mm (manufactured by Showa Denko K.K.) Analytical column temperature: Room temperature Moving bed: 5 mM IPC—PFAA-7 solution/acetonitrile (gradient) Flow rate: 200 μL/min

[3] = target: T1, CXCR4 (human T cell strain CEM cells) (Homo sapiens, UniProt P61073); test: Inhibition of binding human SDF-1 to CEM cells (125I-SDF-1); details: 4° C., 60 minutes
T1 construct: a human T cell strain in which CXCR4 is known to be expressed; endogenous in cells; host or cells: CEM cells (human T cell strain)
Protocol: Specifically, as a system of screening a compound that inhibits the binding between SDF-1 and CXCR4, for example a system of measuring the binding between iodine-labeled SDF-1 and a human T cell strain in which CXCR4 is known to be expressed is operable.
Study for Inhibition of Binding Human SDF-1 to CEM Cells
To human T cell strain CEM cells in a binding buffer (containing HEPES and BSA), the test compound and ^125I-SDF-1 (PerkinElmer) were added and the mixture was incubated at 4° C. for 60 minutes. The reacted CEM cells were rapidly filtrated with a GF/B membrane filter plate (Packard) to adsorb. The plate was washed with phosphate buffered saline (hereinafter abbreviated to PBS) three times and then dried. Microscint+20 (Packard) was added thereto. An amount of the radioactivity bound to the CEM cells was measured using Top Count (Packard) and inhibition (%) of the test compound was calculated according to the following equation:
Inhibition={(Et−Ea)/(Et−Ec)}×100 [Equation 1]
Et: Amount of radioactivity when the test compound is not added,
Ec: Amount of radioactivity when non-radioactive SDF-1 (Pepro Tech) is added in an amount of 1,000 times as much as ^125I-SDF-1 as a test compound, and
Ea: Amount of radioactivity when the test compound is added.

[4] = Measurement of maximum plasma level (Cmax) and stationary state distribution volume (Vss); details: male, Crl:CD(SD), rat, iv, 1 mg/kg
Protocol: as §1, §2, §3, §4, §5, §6, §7, §8

[5] = Artificial lipid membrane binding using Biacore S51 system
Protocol: Artificial Lipid Membrane Binding Account by using Biacore® S51 System
10 mM of 1,2-dioleoyl-sn-glycero-3-phosphate monosodium salt (hereinafter abbreviated as DOPA) chloroform solution was evaporated to dryness by means of an aspirator, and 0.6 mL of PBS/5% dimethyl sulfoxide (hereinafter abbreviated as DMSO) was added. The chloroform solution was fully suspended by means of a vortex mixer, and the freezing and thawing were repeated for 5 times. Liposome was created by means of a liposome preparation instrument (manufactured by Avestin Inc.) and two syringes, and was diluted to 0.5 mM with PBS/5% DMSO just prior to immobilization.
(2) Measurement Compound Preparation
38 μl of 1×PBS is added to 2 μl of a DMSO solution (10 mM), and further the 360 μl of 1×PBS/5% DMSO was added and the 50 μM of final concentration in PBS/5% DMSO was prepared and measured.
All of the following analysis used Biacore® S51 system and the measurement conditions were set by Biacore S51 Control Soft.
The measurement temperature was set to be 37° C., and PBS/5% DMSO (pH 7.4 or 6.0) was used as a buffer. Series S Sensor Chip L1 was used for a sensor chip. DOPA was immobilized in one of the measuring spots on the sensor surface and the central spot was used as a reference.
Immobilization of liposome was conducted at a flow rate of 10 μL/min for about 3 minutes and then the compound was added at a flow rate of 30 μL/min and the interaction was measured. The measurement conditions are as follows:
Assay buffer: PBS/5% DMSO (pH 7.4) Measurement temperature: 37° C. Sensor chip: Series S Sensor Chip L1 Flow rate: 10 μL/min at the time of the liposome immobilization; 30 μL/min at the time of the measurement of interaction with the compound Regeneration: 20 mM CHAPS (3-[(3-cholamidopropyl)dimethylammonio]-1-propanesulfonate), isopropylalcohol/aqueous 50 mM sodium hydroxide solution=40/60 (volume ratio) mixture solution (60 seconds)
The data processing was conducted by means of method of Abdiche et al., (Analytical biochemistry, 328, 233-243 (2004)) by using Biacore S51 Evaluation Soft.
Regarding the value of binding response (RU) in which the value of reference was subtracted, it was divided by a sample molecular weight after minute error of the DMSO concentration included in the sample solution was corrected. In addition, the value obtained here was divided by an amount of capture at the time of the cycle because the value obtained here was proportional to the amount of capture of the liposome and the value was multiplied by a million to be considered as a corrected value (Corrected value=1,000,000×RU (test compound)/molecular quantity (test compound) RU (liposome)).
The compound wherein a value of the binding response after the correction was 150 or more was determined as positive.

T1 sequence (P61073 whole entry): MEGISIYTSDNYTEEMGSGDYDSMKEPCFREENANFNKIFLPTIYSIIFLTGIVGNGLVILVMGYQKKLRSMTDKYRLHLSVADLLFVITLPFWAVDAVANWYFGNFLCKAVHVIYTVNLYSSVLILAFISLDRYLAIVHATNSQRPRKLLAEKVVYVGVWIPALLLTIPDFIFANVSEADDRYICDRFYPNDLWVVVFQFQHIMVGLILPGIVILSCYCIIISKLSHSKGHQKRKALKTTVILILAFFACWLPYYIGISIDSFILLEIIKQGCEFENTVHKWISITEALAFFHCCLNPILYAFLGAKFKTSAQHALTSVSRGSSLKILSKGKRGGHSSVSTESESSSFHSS

Compound | Determination (phospholipidosis, NBD-PE system) [1] | Distribution volume (L/kg) (stationary state distribution volume, Vss) [2] | IC50 [3] | Vd [4] | Value of binding response (RU) ([5]; DOPA liposome, 50 μM compound, PBS/5% DMSO pH 7.4, 37° C., corrected value) | Determination (artificial lipid membrane binding) ([5]; positive = corrected binding response 150 or more) | Rate of increase of phospholipid accumulation (%) (compound dose: 200 μM) ([1]; CHL/IU cells, compound dose 200 μM, about 48 hours, relative to NBD-PE control) | Determination (phospholipidosis, NBD-PE system) ([1]; positive = 25% or more of the maximum increase rate of amiodarone)
CC(C)CN1CCC2(CC1)CCN(CCCn1ccnc1CN(CCCC(=O)O)Cc1ncc[nH]1)C2 [Example 22(3), 4-[(1H-imidazol-2-ylmethyl)({1-[3-(8-isobutyl-2,8-diazaspiro[4.5]deca-2-yl)propyl]-1H-imidazol-2-yl}methyl)amino]butanoic acid] | Negative | 0.90 L/kg | – | – | – | – | – | –
CCC(CC)N1CCC2(CCN(CCCn3ccnc3CN(Cc3ccc(OCC(=O)O)cc3)Cc3ncc[nH]3)C2)CC1 [Example 43, [4-({[(1-{3-[8-(1-ethylpropyl)-2,8-diazaspiro[4.5]deca-2-yl]propyl}-1H-imidazol-2-yl)methyl](1H-imidazol-2-ylmethyl)amino}methyl)phenoxy]acetic acid] | – | – | 4 nM | 0.65 L/kg | 36.1 RU | Negative | 16% | Negative
